Data published in US9023847B2, “Azaheterocyclic compounds” (Merck Patent GmbH, priority 2009, dated 2015).

Biological target: T1, P70S6K (T412E mutant, Millipore) (Homo sapiens, UniProt P23443, T412E)
T1 construct: purchased Millipore
Experiment: p70S6K enzyme assay
Assay type: biochemical
Conditions: Table 1; 3 nM P70S6K, 24 μM ATP, 90 min at 25° C.; read-out: p70S6K inhibition (IC50)
Outline: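 T412E-mutant P70S6K (3 nM) with 24 μM ATP and 1 μM FITC-AHA-AKRRRLSSLRA-OH S6-derived peptide in 100 mM Hepes pH 7.5, 5 mM MgCl2, 1 mM DTT, 0.015% Brij; 90 min at 25° C, EDTA stop. Phosphorylated product and substrate peptide separated and quantified by microfluidic capillary electrophoresis (Caliper LabChip 3000).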

T1 sequence (P23443 whole entry T412E): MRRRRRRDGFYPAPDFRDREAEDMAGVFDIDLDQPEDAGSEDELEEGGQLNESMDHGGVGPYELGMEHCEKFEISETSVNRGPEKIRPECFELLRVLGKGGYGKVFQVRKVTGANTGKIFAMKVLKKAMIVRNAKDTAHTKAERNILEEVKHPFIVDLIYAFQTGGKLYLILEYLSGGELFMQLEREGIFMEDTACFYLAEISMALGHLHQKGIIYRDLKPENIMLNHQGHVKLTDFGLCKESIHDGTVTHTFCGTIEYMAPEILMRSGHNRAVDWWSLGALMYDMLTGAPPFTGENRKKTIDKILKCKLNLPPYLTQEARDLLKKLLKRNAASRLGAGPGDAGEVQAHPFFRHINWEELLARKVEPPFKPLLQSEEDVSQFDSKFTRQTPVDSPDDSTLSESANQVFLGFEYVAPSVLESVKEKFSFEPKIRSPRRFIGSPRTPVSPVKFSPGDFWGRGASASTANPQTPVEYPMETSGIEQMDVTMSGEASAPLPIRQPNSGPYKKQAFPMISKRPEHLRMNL

| Compound | IC50 |
| --- | --- |
| O=C(NCCNCc1ccccc1)c1sccc1Nc1ncnc2[nH]ccc12 [Example 148, 3-(7H-Pyrrolo[2,3-d]pyrimidin-4-ylamino)-thiophene-2-carboxylic acid [2-2-benzylamino-ethyl)-amide] | < 100 nM |
| Cc1ccccc1CCNC(=O)c1sccc1Nc1ncnc2[nH]ccc12 [Example 147, 3-(7H-Pyrrolo[2,3-d]pyrimidin-4-ylamino)-thiophene-2-carboxylic acid [2-o-tolyl-ethyl)-amide] | < 100 nM |
| O=C(NCc1cccc(Cl)c1)c1occc1Nc1ncnc2[nH]ccc12 [Example 141, 3-(7H-Pyrrolo[2,3-d]pyrimidin-4-ylamino)-furan-2-carboxylic acid 3-chloro-benzylamide] | < 100 nM |

Same assay, conditions: class symbol; 3 nM P70S6K, 24 μM ATP; read-out: IC50 (p70S6K)

| Compound | IC50 |
| --- | --- |
| NCC(NC(=O)c1sccc1Nc1ccnc2[nH]ccc12)c1cccc(F)c1 (centres unmarked) [Example 106, 3-(1H-Pyrrolo[2,3-b]pyridin-4-ylamino)-thiophene-2-carboxylic acid [2-amino-1-(3-fluoro-phenyl)-ethyl]-amide] | < 100 nM |
| O=C(NCCSCc1ccccc1)c1sccc1Nc1ccnc2[nH]ccc12 [Example 66, 3-(1H-Pyrrolo[2,3-b]pyridin-4-ylamino)-thiophene-2-carboxylic acid (2-benzylsulfanyl-ethyl)-amide] | 100 to 1000 nM |
| O=C(N[C@H](CN1C(=O)c2ccccc2C1=O)c1ccccc1)c1sccc1Nc1ccnc2[nH]ccc12 [Example 135, (S)-2-(1H-Pyrrolo[2,3-b]pyridin-4-ylamino)-thiophene-3-carboxylic acid[2-(1,3-dioxo-1,3-dihydro-isoindol-2-yl)-1-phenyl-ethyl]-amide] | < 100 nM |
| CNCC(NC(=O)c1sccc1Nc1ccnc2[nH]ccc12)c1cccc(Cl)c1 (centres unmarked) [Example 168, 3-(1H-Pyrrolo[2,3-b]pyridin-4-ylamino)-thiophene-2-carboxylic acid [1-(3-chloro-phenyl)-2-methylamino-ethyl]-amide] | < 100 nM |
| O=C(NCCN(Cc1ccoc1)Cc1ccoc1)c1sccc1Nc1ccnc2[nH]ccc12 [Example 47, 3-(1H-Pyrrolo[2,3-b]pyridin-4-ylamino)-thiophene-2-carboxylic acid [2-(bis-furan-3-ylmethyl-amino)-ethyl]-amide] | < 100 nM |
| CN(C)CC(NC(=O)c1sccc1Nc1ccnc2[nH]ccc12)c1ccc(F)cc1 (centres unmarked) [Example 166, 3-(1H-Pyrrolo[2,3-b]pyridin-4-ylamino)-thiophene-2-carboxylic acid [2-dimethylamino-1-(4-fluoro-phenyl)-ethyl]-amide] | < 100 nM |
| CC(NCCNC(=O)c1sccc1Nc1ccnc2[nH]ccc12)c1ccccc1 (centres unmarked) [Example 131, 3-(1H-Pyrrolo[2,3-b]pyridin-4-ylamino)-thiophene-2-carboxylic acid [2-(1-phenyl-ethylamino)-ethyl]-amide] | < 100 nM |
| O=C(NCCSCc1ccco1)c1sccc1Nc1ccnc2[nH]ccc12 [Example 24, 3-(1H-Pyrrolo[2,3-b]pyridin-4-ylamino)-thiophene-2-carboxylic acid [2-(furan-2-ylmethylsulfanyl)-ethyl]-amide] | < 100 nM |
| COc1cccc(NC(=O)c2sccc2Nc2ccnc3[nH]ccc23)c1 [Example 39, 3-(1H-Pyrrolo[2,3-b]pyridin-4-ylamino)-thiophene-2-carboxylic acid (3-methoxy-phenyl)-amide] | 100 to 1000 nM |
| COc1cc(CNC(=O)c2sccc2Nc2ccnc3[nH]ccc23)cc(OC)c1 [Example 95, 3-(1H-Pyrrolo[2,3-b]pyridin-4-ylamino)-thiophene-2-carboxylic acid 3,5-dimethoxy-benzylamide] | 100 to 1000 nM |
| COc1ccccc1C(CN)NC(=O)c1ccsc1Nc1ccnc2[nH]ccc12 (centres unmarked) [Example 109, 2-(1H-Pyrrolo[2,3-b]pyridin-4-ylamino)-thiophene-3-carboxylic acid [2-amino-1-(2-methoxy-phenyl)-ethyl]-amide] | < 100 nM |
